Experimental data taken from patent US8435978B2, “Substituted sulfonamide compounds” (Gruenenthal GmbH, priority 2006, dated 2013).

Legend:
B1R receptor of the rat = biological target: T1, B1R receptor of the rat (Rattus norvegicus, UniProt P97583); test: Functional study on the bradykinin receptor 1 (B1R), FLIPR Ca2+ assay, rB1R cells; format: cell-based; conditions: agonist Des-Arg9-bradykinin 100 nM, % inhibition compared with the maximum achievable inhibition; for inhibition at 10 µM: CHO-K1, test substance 10 μM, read-out: B1R Antagonism, rat [10 μM] % Inhibition
T1 construct: host or cells: CHO K1 cells (Chinese hamster ovary), stably transfected
T1 sequence (P97583 1-337): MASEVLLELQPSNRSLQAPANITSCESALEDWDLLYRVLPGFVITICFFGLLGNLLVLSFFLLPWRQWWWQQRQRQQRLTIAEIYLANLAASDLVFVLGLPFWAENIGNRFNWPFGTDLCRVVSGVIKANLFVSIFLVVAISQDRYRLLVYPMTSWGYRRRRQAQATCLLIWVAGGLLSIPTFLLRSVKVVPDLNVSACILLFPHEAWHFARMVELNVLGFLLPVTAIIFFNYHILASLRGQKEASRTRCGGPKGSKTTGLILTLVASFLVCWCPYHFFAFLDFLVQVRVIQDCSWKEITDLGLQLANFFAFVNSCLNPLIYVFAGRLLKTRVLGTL
Procedure, shortened: (§1)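 Readout: peak Fluo-4 Ca2+ fluorescence, FLIPR. Stable CHO K1 hB1R or rB1R cells; cpd 10 μM, 10 min preincubation, then agonist (hB1R: Lys-Des-Arg9-BK 0.5 nM; rB1R: Des-Arg9-BK 100 nM). Value = % inhibition relative to maximal achievable inhibition.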

human B1R receptor = biological target: T2, human B1R receptor (Homo sapiens, UniProt P46663); test: Functional study on the bradykinin receptor 1 (B1R), FLIPR Ca2+ assay, hB1R cells; format: cell-based; conditions: agonist Lys-Des-Arg9-bradykinin 0.5 nM, % inhibition compared with the maximum achievable inhibition; for inhibition at 10 µM: CHO-K1, test substance 10 μM, read-out: B1R Antagonism, human [10 μM] % Inhibition
T2 construct: host or cells: CHO K1 cells (Chinese hamster ovary), stably transfected
T2 sequence (P46663 1-353): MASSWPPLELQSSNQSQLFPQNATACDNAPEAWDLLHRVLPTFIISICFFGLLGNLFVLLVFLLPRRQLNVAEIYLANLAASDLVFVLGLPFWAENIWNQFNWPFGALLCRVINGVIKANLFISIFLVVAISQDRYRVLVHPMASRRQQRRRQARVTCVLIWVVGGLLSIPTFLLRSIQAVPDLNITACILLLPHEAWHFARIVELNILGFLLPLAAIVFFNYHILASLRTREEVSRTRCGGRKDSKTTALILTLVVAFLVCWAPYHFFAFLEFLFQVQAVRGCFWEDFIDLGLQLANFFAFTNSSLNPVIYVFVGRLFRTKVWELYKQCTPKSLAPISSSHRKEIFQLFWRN
Procedure, shortened: as §1

Structure (SMILES)	B1R Antagonism, rat [10 μM] % Inhibition (B1R receptor of the rat; test substance 10 μM, rB1R CHO K1 cells)	B1R Antagonism, human [10 μM] % Inhibition (human B1R receptor; test substance 10 μM, hB1R CHO K1 cells)	inhibition at 10 µM (B1R receptor of the rat)	inhibition at 10 µM (human B1R receptor)
COc1cc(C)c(S(=O)(=O)N2CCCCC2COCC(=O)N2CCC(N3CCN(C)CC3)CC2)c(C)c1 (stereo not drawn) [Example 524, 2-((1-(4-methoxy-2,6-dimethylphenylsulfonyl)piperidin-2-yl)methoxy)-1-(4-(4-methylpiperazin-1-yl)piperidin-1-yl)ethanone]	100.66%	101.62%		
COc1cc(C)c(S(=O)(=O)N2CCCCC2COCC(=O)N2CCN(c3nc4ccccc4s3)CC2)c(C)c1 (stereo not drawn) [Example 526, 1-(4-(benzo[d]thiazol-2-yl)piperazin-1-yl)-2-((1-(4-methoxy-2,6-dimethylphenylsulfonyl)piperidin-2-yl)methoxy)ethanone]			102%	73.3%
Cc1nccn1-c1ccc(NC(=O)COCC2CCCCN2S(=O)(=O)c2c(Cl)cccc2Cl)cc1 (stereo not drawn) [Example 527, 2-((1-(2,6-dichlorophenylsulfonyl)piperidin-2-yl)methoxy)-N-(4-(2-methyl-1H-imidazol-1-yl)phenyl)acetamide]			97.3%	97.2%
CN(C)c1ccc(C2CCCN2C(=O)COCC2CCCCN2S(=O)(=O)c2c(Cl)cccc2Cl)cc1 (stereo not drawn) [Example 528, 2-((1-(2,6-dichlorophenylsulfonyl)piperidin-2-yl)methoxy)-1-(2-(4-(dimethylamino)phenyl)pyrrolidin-1-yl)ethanone]			102%	88.2%
O=C(COCC1CCCCN1S(=O)(=O)c1c(Cl)cccc1Cl)N1CCCN(Cc2ccccc2)CC1 (stereo not drawn) [Example 529, 1-(4-benzyl-1,4-diazepan-1-yl)-2-((1-(2,6-dichlorophenylsulfonyl)piperidin-2-yl)methoxy)ethanone]			101%	106%
CC(C)N(Cc1ccc(N(C)C)cc1)C(=O)COCC1CCCCN1S(=O)(=O)c1c(Cl)cccc1Cl (stereo not drawn) [Example 530, 2-((1-(2,6-dichlorophenylsulfonyl)piperidin-2-yl)methoxy)-N-(4-(dimethylamino)benzyl)-N-isopropylacetamide]			101%	93.1%
COc1cc(C)c(S(=O)(=O)N2CCCC2COCC(=O)N2CCCN(c3ncccc3C#N)CC2)c(C)c1 (stereo not drawn) [Example 531, 2-(4-(2-((1-(4-methoxy-2,6-dimethylphenylsulfonyl)pyrrolidin-2-yl)methoxy)acetyl)-1,4-diazepan-1-yl)nicotinonitrile]			96.2%	92.6%
COc1cc(C)c(S(=O)(=O)N2CCCCC2COCC(=O)N(C)CCN2CCCCC2)c(C)c1 (stereo not drawn) [Example 532, 2-((1-(4-methoxy-2,6-dimethylphenylsulfonyl)piperidin-2-yl)methoxy)-N-methyl-N-(2-(piperidin-1-yl)ethyl)acetamide]			108%	96.4%
COc1cc(C)c(S(=O)(=O)N2CCCCC2COCC(=O)N2CCC(CCN3CCCCC3)CC2)c(C)c1 (stereo not drawn) [Example 533, 2-((1-(4-methoxy-2,6-dimethylphenylsulfonyl)piperidin-2-yl)methoxy)-1-(4-(2-(piperidin-1-yl)ethyl)piperidin-1-yl)ethanone]			108%	106%
COc1cc(C)c(S(=O)(=O)N2CCCCC2COCC(=O)N2CCCCC2CCN2CCOCC2)c(C)c1 (stereo not drawn) [Example 534, 2-((1-(4-methoxy-2,6-dimethylphenylsulfonyl)piperidin-2-yl)methoxy)-1-(2-(2-morpholinoethyl)piperidin-1-yl)ethanone]			107%	104%
COc1cc(C)c(S(=O)(=O)N2CCCCC2COCC(=O)Nc2cc(C)[nH]n2)c(C)c1 (stereo not drawn) [Example 535, 2-((1-(4-methoxy-2,6-dimethylphenylsulfonyl)piperidin-2-yl)methoxy)-N-(5-methyl-1H-pyrazol-3-yl)acetamide]			107%	48.4%
COc1cc(C)c(S(=O)(=O)N2CCCCC2COCC(=O)Nc2cc(-c3ccccc3)[nH]n2)c(C)c1 (stereo not drawn) [Example 536, 2-((1-(4-methoxy-2,6-dimethylphenylsulfonyl)piperidin-2-yl)methoxy)-N-(5-phenyl-1H-pyrazol-3-yl)acetamide]			107%	63.1%
COc1cc(C)c(S(=O)(=O)N2CCCCC2COCC(=O)Nc2cc(-c3ccc(Cl)cc3)n[nH]2)c(C)c1 (stereo not drawn) [Example 537, N-(3-(4-chlorophenyl)-1H-pyrazol-5-yl)-2-((1-(4-methoxy-2,6-dimethylphenylsulfonyl)piperidin-2-yl)methoxy)acetamide]			98.7%	12.5%
COc1cc(C)c(S(=O)(=O)N2CCCCC2COCC(=O)Nc2[nH]ncc2-c2ccc(OC)c(OC)c2)c(C)c1 (stereo not drawn) [Example 538, N-(4-(3,4-dimethoxyphenyl)-1H-pyrazol-5-yl)-2-((1-(4-methoxy-2,6-dimethylphenylsulfonyl)piperidin-2-yl)methoxy)acetamide]			106%	-11.8%
COc1cc(C)c(S(=O)(=O)N2CCCCC2COCC(=O)Nc2cc(-c3cccs3)n[nH]2)c(C)c1 (stereo not drawn) [Example 539, 2-((1-(4-methoxy-2,6-dimethylphenylsulfonyl)piperidin-2-yl)methoxy)-N-(3-(thiophen-2-yl)-1H-pyrazol-5-yl)acetamide]			107%	38.8%
COc1cc(C)c(S(=O)(=O)N2CCCCC2COCC(=O)Nc2cc(-c3ccccc3OC)[nH]n2)c(C)c1 (stereo not drawn) [Example 540, 2-((1-(4-methoxy-2,6-dimethylphenylsulfonyl)piperidin-2-yl)methoxy)-N-(5-(2-methoxyphenyl)-1H-pyrazol-3-yl)acetamide]			100%	7.17%
COc1cccc(-c2cc(NC(=O)COCC3CCCCN3S(=O)(=O)c3c(C)cc(OC)cc3C)n[nH]2)c1 (stereo not drawn) [Example 541, 2-((1-(4-methoxy-2,6-dimethylphenylsulfonyl)piperidin-2-yl)methoxy)-N-(5-(3-methoxyphenyl)-1H-pyrazol-3-yl)acetamide]			108%	103%
COc1cc(C)c(S(=O)(=O)N2CCCCC2COCC(=O)Nc2cc(-c3cccc(F)c3)[nH]n2)c(C)c1 (stereo not drawn) [Example 542, N-(5-(3-fluorophenyl)-1H-pyrazol-3-yl)-2-((1-(4-methoxy-2,6-dimethylphenylsulfonyl)piperidin-2-yl)methoxy)acetamide]			107%	49.2%
COc1ccc(-c2cc(NC(=O)COCC3CCCCN3S(=O)(=O)c3c(C)cc(OC)cc3C)n[nH]2)cc1 (stereo not drawn) [Example 543, 2-((1-(4-methoxy-2,6-dimethylphenylsulfonyl)piperidin-2-yl)methoxy)-N-(5-(4-methoxyphenyl)-1H-pyrazol-3-yl)acetamide]			105%	21.1%
COc1cc(C)c(S(=O)(=O)N2CCCCC2COCC(=O)Nc2cc(-c3ccc(C)cc3)n[nH]2)c(C)c1 (stereo not drawn) [Example 544, 2-((1-(4-methoxy-2,6-dimethylphenylsulfonyl)piperidin-2-yl)methoxy)-N-(3-p-tolyl-1H-pyrazol-5-yl)acetamide]			107%	11.7%
COc1cc(C)c(S(=O)(=O)N2CCCCC2COCC(=O)Nc2cc(-c3ccccc3)n[nH]2)c(C)c1 (stereo not drawn) [Example 545, 2-((1-(4-methoxy-2,6-dimethylphenylsulfonyl)piperidin-2-yl)methoxy)-N-(3-phenyl-1H-pyrazol-5-yl)acetamide]			106%	39.8%
